For data set [1], the target named is T1, human histamine H3 receptor (Homo sapiens, UniProt Q9Y5N1).
T1 construct: host or cells: cells expressing the human H3 receptor
Put plainly: H3 GTPγS assay (SPA method), histamine H3 in vitro assay. Conditions: GTPγ[35S] SPA, membranes of cells expressing human H3 receptor; in one embodiment HCl salts tested; read-out: Potency (functional potency as indicated by IC50). In kind it is biochemical.

A short description of data set [2]: In vivo rat PK, brain exposures. Conditions: adult male rats, oral gavage in water; for concentration at 1 hr: 1 hr after dosing, read-out: Compound Concentration (ng/g rat brain) 1 hr; for concentration at 24 hr: 24 hr after dosing, read-out: Compound Concentration (ng/g rat brain) 24 hr. How it is done: In vivo rat PK studies were performed using certain compounds provided herein. In one embodiment, a compound was dissolved in water and was administered to adult male rats (n=3 per time point) by oral gavage at a dose of 3 to 10 mg/kg. The plasma samples were collected and brain tissues were harvested at various time points after dosing, e.g., 15 min, 30 min, 1 hr, 2 hr, and 24 hr after dosing. The PK samples were analyzed; and the compound concentrations in these samples were quantified by LC/MS. The pKa values of the R^6 moiety of the compounds were calculated using ACD Lab (Version 12.01).

Where two headings read alike, the source gives them in different places.

T1 sequence (Q9Y5N1 whole entry): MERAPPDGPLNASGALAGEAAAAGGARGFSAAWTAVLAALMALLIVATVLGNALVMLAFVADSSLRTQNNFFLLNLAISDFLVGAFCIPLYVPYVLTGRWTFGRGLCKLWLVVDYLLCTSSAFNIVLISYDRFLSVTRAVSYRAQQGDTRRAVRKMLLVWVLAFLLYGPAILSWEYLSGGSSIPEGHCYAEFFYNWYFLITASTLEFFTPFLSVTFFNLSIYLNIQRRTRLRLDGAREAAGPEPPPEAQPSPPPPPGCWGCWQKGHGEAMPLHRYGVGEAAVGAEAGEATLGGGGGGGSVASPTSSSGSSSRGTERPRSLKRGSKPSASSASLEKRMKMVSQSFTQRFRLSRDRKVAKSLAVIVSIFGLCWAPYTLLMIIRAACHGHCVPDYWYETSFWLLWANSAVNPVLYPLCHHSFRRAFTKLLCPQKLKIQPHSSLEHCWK

Turning to `c1cn2cc(-c3ccc4c(c3)CC3(CCN(C5CCC5)CC3)O4)ccc2n1` [Compound 30, 1′-Cyclobutyl-5-(imidazo[1,2-a]pyridin-6-yl)-3H-spiro[benzofuran-2,4′-piperidine]], the IC50 in data set [1] was ≤ 10 nM. For the same molecule, in data set [2] (10 mg/kg), the concentration at 1 hr is 5200 ng/g and the concentration at 24 hr was determined as 250 ng/g. Consider `c1cc2c(cc1CN1CCOCC1)CC1(CCN(C3CCC3)CC1)O2` [Compound 40, 1′-Cyclobutyl-5-(morpholinomethyl)-3H-spiro[benzofuran-2,4′-piperidine]], for which the IC50 in data set [1] is ≤ 10 nM. In data set [2] (3 mg/kg), the concentration at 1 hr stood at 900 ng/g and the concentration at 24 hr amounted to 140 ng/g. For the molecule `c1cc2c(cc1CN1CCCC1)CC1(CCN(C3CCC3)CC1)O2` [Compound 41, 1′-Cyclobutyl-5-(pyrrolidin-1-ylmethyl)-3H-spiro[benzofuran-2,4′-piperidine]], the IC50 in data set [1] was ≤ 10 nM. In addition, in data set [2] (3 mg/kg), the concentration at 1 hr was < 25 ng/g and the concentration at 24 hr is 450 ng/g. Turning to `N#Cc1ccc(-c2ccc3c(c2)CC2(CCN(C4CCC4)CC2)O3)cc1` [Compound 5, 4-(1′-Cyclobutyl-3H-spiro[benzofuran-2,4′-piperidine]-5-yl)benzonitrile], the IC50 in data set [1] was ≤ 10 nM. In data set [2] (5 mg/kg), the concentration at 1 hr amounted to 3100 ng/g and the concentration at 24 hr came out at 400 ng/g. Turning to `c1cc2nc(-c3ccc4c(c3)CC3(CCN(C5CCC5)CC3)O4)cnc2[nH]1` [Compound 58, 1′-Cyclobutyl-5-(5H-pyrrolo[2,3-b]pyrazin-2-yl)-3H-spiro[benzofuran-2,4′-piperidine]], the IC50 in data set [1] is ≤ 10 nM. Turning to `CC1CCCC1N1CCC2(CC1)Cc1cc(-c3ccc(C#N)cc3)ccc1O2` (centres unmarked) [Compound 18], in data set [1], the IC50 was ≤ 100 nM. The same measure, in the same setting: the same measure for `N#Cc1ccc(-c2ccc3c(c2)CC2(CCN(C4CCCC4)CC2)O3)cc1` [Compound 17, 4-(1′-Cyclopentyl-3H-spiro[benzofuran-2,4′-piperidine]-5-yl)benzonitrile]: ≤ 100 nM; for `CC(=O)Nc1ccc(-c2ccc3c(c2)CC2(CCN(C4CCN(C)CC4)CC2)O3)cc1` [Compound 9, N-(4-(1′-(1-Methylpiperidin-4-yl)-3H-spiro[benzofuran-2,4′-piperidine]-5-yl)phenyl)acetamide]: ≤ 100 nM. The same measure, in the same setting: to `CC(C1CCC1)N1CCC2(CC1)Cc1ccccc1O2` (centres unmarked) [Compound 4, 1′-(1-Cyclobutylethyl)-3H-spiro[benzofuran-2,4′-piperidine]] belongs ≤ 1000 nM. For the molecule `c1cc2cc(-c3ccc4c(c3)CC3(CCN(C5CCC5)CC3)O4)cnc2[nH]1` [Compound 55, 1′-Cyclobutyl-5-(1H-pyrrolo[2,3-b]pyridin-5-yl)-3H-spiro[benzofuran-2,4′-piperidine]], in data set [1], the IC50 is ≤ 100 nM. Take `c1cn(-c2ccc3c(c2)CC2(CCN(C4CCC4)CC2)O3)cn1` [Compound 31, 1′-Cyclobutyl-5-(1H-imidazol-1-yl)-3H-spiro[benzofuran-2,4′-piperidine]]: the IC50 in data set [1] is ≤ 10 nM. With `c1cc2c(cc1N1CCCCC1)OC1(CCCN(C3CCC3)CC1)C2` (centres unmarked) [Compound 71, 1-Cyclobutyl-6′-(piperidin-1-yl)-3′H-spiro[azepane-4,2′-benzofuran]], the IC50 in data set [1] is ≤ 100 nM.

As for `N#Cc1ccc(-c2ccc3c(c2)CC2(CCCN(C4CCC4)CC2)O3)cc1` (centres unmarked) [Compound 48, 4-(1-Cyclobutyl-3′H-spiro[azepane-4,2′-benzofuran]-5′-yl)benzonitrile], in data set [1], the IC50 is ≤ 10 nM.

As to `N#Cc1ccc(-c2ccc3c(c2)CC2(CCN4CCCCC4C2)O3)cc1` (centres unmarked) [Compound 75, 4-(-1′,3′,4′,6′,7′,8′,9′,9a′-Octahydro-3H-spiro[benzofuran-2,2′-quinolizin]-5-yl)benzonitrile], in data set [1], the IC50 was ≤ 10 nM. Still for that read-out and setting: to `N#Cc1ccc(-c2ccc3c(c2)CC2(CCN(CC4CCC4)CC2)O3)cc1` [Compound 21, 4-(1′-(Cyclobutylmethyl)-3H-spiro[benzofuran-2,4′-piperidine]-5-yl)benzonitrile] belongs ≤ 1000 nM. As to `CN1CCC(N2CCC3(CC2)Cc2cc(-c4ccc(CN)cc4)ccc2O3)CC1` [Compound 15, (4-(1′-(1-Methylpiperidin-4-yl)-3H-spiro[benzofuran-2,4′-piperidine]-5-yl)phenyl)methanamine], in data set [1], the IC50 was ≤ 100 nM.

On to `CN1CCC(N2CCC3(CC2)Cc2cc(Br)ccc2O3)CC1` [Compound 24, 5-Bromo-1′-(1-methylpiperidin-4-yl)-3H-spiro[benzofuran-2,4′-piperidine]], for which the 50% inhibitory concentration (IC50) in data set [1] was ≤ 1000 nM. Same read-out and setting: to `c1ccc2c(c1)CCN(Cc1ccc3c(c1)CC1(CCN4CCCC4C1)O3)C2` (centres unmarked) [Compound 93] belongs ≤ 10 nM.

One may read the IC50 as the concentration that inhibits the measured activity by half.

The values above are taken from patent publication US20120077802A1 (SUNOVION PHARMACEUTICALS INC., priority 2009, published 2012).
